Measurements: US20250136578A1 (Kolm Therapeutics Inc., priority 2023, published 2025)
Where two headings read alike, the source gives them in different places.

Experiments:
AR / CBP ternary complex = AR / CBP ternary complex (Homo sapiens, UniProt P10275+Q92793); experiment: Ternary complex formation assay (sandwich ELISA, AR capture, CBP antibody detection) in VCaP cell lysates; assay type: cell-based
Outline: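 VCaP cells in 5% charcoal-stripped FBS were cultured ≥3 days and then given bifunctional compound for 1.5 h. Lysates went onto AR-antibody-coated plates. Bound CBP (or p300) was detected with a rabbit antibody plus HRP anti-rabbit, using QuantaRed chemifluorescence (ex 570/em 585) read immediately, at 5 min and at 15 min.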

VCaP cells = experiment: VCaP growth inhibition assay (CTG); assay type: cell-based; settings: Homo sapiens, 216 h, 30 pM R1881, 9 days
Outline: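 VCaP cells in phenol red-free DMEM with 5% charcoal-stripped serum were stimulated with 30 pM R1881 (final) and treated with compound from 100 nM to 10 fM final (1:5 dilutions) for 9 days at 37 °C. Viability was read by CellTiter-Glo luminescence, and IC50 came from 4-parameter logistic fits.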

[1] = treated 1.5 hours, rabbit CBP or p300 antibody detection, average, read-out: Average Ternary Complex

Sequence of AR / CBP ternary complex (P10275 whole entry): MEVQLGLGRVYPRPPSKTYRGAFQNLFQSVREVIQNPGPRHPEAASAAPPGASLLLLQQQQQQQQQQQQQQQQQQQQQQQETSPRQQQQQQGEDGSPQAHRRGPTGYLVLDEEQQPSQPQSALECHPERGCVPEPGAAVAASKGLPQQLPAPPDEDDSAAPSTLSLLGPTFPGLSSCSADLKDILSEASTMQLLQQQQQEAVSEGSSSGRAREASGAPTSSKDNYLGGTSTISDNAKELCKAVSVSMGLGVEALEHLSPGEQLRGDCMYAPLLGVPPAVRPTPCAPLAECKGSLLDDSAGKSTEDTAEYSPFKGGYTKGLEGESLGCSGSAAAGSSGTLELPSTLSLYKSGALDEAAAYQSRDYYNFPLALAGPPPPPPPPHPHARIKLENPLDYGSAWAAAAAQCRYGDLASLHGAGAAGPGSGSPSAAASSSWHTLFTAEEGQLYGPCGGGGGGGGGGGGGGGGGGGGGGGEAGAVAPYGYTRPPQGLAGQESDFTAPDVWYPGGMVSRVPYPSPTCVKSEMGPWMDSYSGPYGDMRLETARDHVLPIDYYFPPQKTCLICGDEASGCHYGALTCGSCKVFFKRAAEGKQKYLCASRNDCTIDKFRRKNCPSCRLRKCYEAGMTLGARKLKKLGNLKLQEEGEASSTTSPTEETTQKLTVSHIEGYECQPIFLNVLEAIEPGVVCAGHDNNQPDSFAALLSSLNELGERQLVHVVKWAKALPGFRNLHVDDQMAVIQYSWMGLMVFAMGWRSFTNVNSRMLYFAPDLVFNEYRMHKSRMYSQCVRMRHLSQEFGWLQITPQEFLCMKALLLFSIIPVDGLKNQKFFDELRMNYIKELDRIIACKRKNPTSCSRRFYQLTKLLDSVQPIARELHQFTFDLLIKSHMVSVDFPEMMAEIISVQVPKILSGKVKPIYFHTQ
Sequence of AR / CBP ternary complex (Q92793 2-2442): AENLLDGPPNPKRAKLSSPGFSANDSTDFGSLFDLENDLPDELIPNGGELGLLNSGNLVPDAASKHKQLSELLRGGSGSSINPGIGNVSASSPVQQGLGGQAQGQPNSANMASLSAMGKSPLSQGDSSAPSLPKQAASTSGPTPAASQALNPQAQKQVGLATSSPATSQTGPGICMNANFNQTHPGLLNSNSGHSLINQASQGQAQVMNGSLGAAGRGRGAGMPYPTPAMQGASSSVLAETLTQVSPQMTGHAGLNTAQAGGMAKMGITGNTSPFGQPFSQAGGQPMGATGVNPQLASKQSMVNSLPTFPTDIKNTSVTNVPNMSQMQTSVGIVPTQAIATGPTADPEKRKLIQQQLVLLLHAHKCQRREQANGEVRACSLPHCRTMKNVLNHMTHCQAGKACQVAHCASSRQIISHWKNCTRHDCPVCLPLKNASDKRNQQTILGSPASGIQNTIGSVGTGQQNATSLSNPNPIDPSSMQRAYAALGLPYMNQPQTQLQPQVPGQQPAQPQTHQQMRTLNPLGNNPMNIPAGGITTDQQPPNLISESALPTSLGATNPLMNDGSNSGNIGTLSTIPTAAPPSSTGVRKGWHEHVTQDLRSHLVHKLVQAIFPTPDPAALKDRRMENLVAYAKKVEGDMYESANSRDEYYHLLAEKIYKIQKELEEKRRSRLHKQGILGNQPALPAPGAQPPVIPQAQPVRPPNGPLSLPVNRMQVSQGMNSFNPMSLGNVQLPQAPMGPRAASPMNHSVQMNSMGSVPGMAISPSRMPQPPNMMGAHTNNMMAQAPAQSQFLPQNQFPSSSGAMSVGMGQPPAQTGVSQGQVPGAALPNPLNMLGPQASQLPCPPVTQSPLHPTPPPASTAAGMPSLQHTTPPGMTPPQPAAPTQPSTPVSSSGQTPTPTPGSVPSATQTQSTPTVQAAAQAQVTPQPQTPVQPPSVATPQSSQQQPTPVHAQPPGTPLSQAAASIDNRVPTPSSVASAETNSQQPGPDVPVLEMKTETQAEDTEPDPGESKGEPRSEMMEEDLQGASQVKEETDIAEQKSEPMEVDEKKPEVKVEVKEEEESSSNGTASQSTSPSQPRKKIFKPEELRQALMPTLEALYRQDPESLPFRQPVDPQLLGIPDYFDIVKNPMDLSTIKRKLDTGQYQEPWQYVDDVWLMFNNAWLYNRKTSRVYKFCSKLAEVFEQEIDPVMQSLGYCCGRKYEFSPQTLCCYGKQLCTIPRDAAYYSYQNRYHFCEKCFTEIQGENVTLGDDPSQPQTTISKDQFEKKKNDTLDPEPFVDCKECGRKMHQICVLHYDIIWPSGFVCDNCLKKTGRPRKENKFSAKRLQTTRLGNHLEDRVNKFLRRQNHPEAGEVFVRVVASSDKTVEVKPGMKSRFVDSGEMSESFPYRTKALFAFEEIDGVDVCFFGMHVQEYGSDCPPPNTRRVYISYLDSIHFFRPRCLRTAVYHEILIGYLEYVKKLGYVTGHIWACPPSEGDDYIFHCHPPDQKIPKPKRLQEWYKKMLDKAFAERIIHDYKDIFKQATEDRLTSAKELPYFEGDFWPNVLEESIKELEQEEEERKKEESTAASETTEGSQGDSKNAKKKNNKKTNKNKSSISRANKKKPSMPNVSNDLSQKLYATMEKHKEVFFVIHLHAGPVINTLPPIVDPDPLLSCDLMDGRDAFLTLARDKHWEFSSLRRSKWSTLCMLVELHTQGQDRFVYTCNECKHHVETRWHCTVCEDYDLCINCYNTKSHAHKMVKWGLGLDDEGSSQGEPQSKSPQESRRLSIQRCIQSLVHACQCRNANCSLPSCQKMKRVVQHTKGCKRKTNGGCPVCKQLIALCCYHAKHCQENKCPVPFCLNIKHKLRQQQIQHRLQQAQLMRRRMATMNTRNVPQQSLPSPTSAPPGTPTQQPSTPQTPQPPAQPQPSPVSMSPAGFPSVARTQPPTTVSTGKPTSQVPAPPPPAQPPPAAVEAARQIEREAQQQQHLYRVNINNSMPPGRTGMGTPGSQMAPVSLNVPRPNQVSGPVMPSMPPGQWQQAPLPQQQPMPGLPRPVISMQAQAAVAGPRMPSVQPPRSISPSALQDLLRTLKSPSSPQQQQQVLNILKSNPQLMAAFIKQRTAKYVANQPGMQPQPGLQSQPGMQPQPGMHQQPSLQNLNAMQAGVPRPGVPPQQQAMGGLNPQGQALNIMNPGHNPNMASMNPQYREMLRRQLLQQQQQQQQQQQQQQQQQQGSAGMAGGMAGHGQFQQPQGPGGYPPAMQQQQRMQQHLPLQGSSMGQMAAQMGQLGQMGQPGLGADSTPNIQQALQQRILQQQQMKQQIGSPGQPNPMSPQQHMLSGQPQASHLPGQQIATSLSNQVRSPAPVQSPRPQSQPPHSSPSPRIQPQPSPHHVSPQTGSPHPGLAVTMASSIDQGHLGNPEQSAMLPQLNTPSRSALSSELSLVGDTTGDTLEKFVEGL

EC50 (AR / CBP ternary complex; [1]) [nM] | IC50 (VCaP cells) [nM] | SMILES | EC50 (AR / CBP ternary complex; read-out: Average Ternary Complex, treated 1.5 hours, rabbit CBP or p300 antibody detection) [nM]
< 1 | ≤ 0.1 | CC(=O)N1CCc2c(c(-c3cccc4cc(-c5ccc(CCC6CCN(c7ccc(C(=O)N[C@H]8CC[C@H](Oc9ccc(C#N)c(Cl)c9)CC8)nn7)CC6)cc5)ncc34)nn2C2CCOCC2)C1 [Compound 153, 6-[4-[2-[4-[8-(5-acetyl-1-tetrahydropyran-4-yl-6,7-dihydro-4H-pyrazolo[4,3-c]pyridin-3-yl)-3-isoquinolyl]phenyl]ethyl]-1-piperidyl]-N-[4-(3-chloro-4-cyano-phenoxy)cyclohexyl]pyridazine-3-carboxamide] | –
< 1 | 0.1 to 1 | CC(=O)N1CCc2c(c(-c3cccc4cc(-c5ccc(CC6CCN(c7ccc(C(=O)N[C@H]8CC[C@H](Oc9ccc(C#N)c(Cl)c9)CC8)nn7)CC6)nc5)ncc34)nn2C2CCOCC2)C1 [Compound 23, 6-[4-[[5-[8-(5-acetyl-1-tetrahydropyran-4-yl-6,7-dihydro-4H-pyrazolo[4,3-c]pyridin-3-yl)-3-isoquinolyl]-2-pyridyl]methyl]-1-piperidyl]-N-[4-(3-chloro-4-cyano-phenoxy)cyclohexyl]pyridazine-3-carboxamide] | –
< 1 | ≤ 0.1 | CC(=O)N1CCc2c(c(N3CCCc4cc(-c5cnn(C)c5)c(C(F)F)cc43)nn2C2CCN(CC3CCN(c4ccc(C(=O)N[C@H]5CC[C@H](Oc6ccc(C#N)c(Cl)c6)CC5)cc4)CC3)CC2)C1 [Compound 139, 4-[4-[[4-[5-acetyl-3-[7-(difluoromethyl)-6-(1-methylpyrazol-4-yl)-3,4-dihydro-2H-quinolin-1-yl]-6,7-dihydro-4H-pyrazolo[4,3-c]pyridin-1-yl]-1-piperidyl]methyl]-1-piperidyl]-N-[4-(3-chloro-4-cyano-phenoxy)cyclohexyl] benzamide] | –
< 1 | ≤ 0.1 | CC(=O)N1CCc2c(c(N3CCCc4cc(-c5cnn(C)c5)c(C(F)F)cc43)nn2C2CCC3(CC2)CCN(C2CN(c4ccc(C(=O)NC5CCC(Oc6ccc(C#N)c(Cl)c6)CC5)nn4)C2)CC3)C1 (stereo not shown) [Compound 197, 6-[3-[9-[5-acetyl-3-[7-(difluoromethyl)-6-(1-methylpyrazol-4-yl)-3,4-dihydro-2H-quinolin-1-yl]-6,7-dihydro-4H-pyrazolo[4,3-c]pyridin-1-yl]-3-azaspiro[5.5]undecan-3-yl]azetidin-1-yl]-N-[4-(3-chloro-4-cyanophenoxy)cyclohexyl]pyridazine-3-carboxamide] | –
< 1 | ≤ 0.1 | CC(=O)N1CCc2c(c(N3CCCc4cc(-c5cnn(C)c5)c(C(F)F)cc43)nn2C2CCN(C3CC4(CC(Oc5ccc(C(=O)N[C@H]6CC[C@H](Oc7ccc(C#N)c(Cl)c7)CC6)nn5)C4)C3)CC2)C1 (stereo partly shown) [Compound 247, 6-[6-[4-[5-acetyl-3-[7-(difluoromethyl)-6-(1-methylpyrazol-4-yl)-3,4-dihydro-2H-quinolin-1-yl]-6,7-dihydro-4H-pyrazolo[4,3-c]pyridin-1-yl]-1-piperidyl]spiro[3.3]heptan-2-yl]oxy-N-[4-(3-chloro-4-cyano-phenoxy)cyclohexyl]pyridazine-3-carboxamide] | –
1 to 10 | 1 to 100 | CC(=O)N1CCc2c(c(N3CCCc4cc(-c5cnn(C)c5)c(C(F)F)cc43)nn2C2CCN([C@@H]3CCCN(c4ccc(C(=O)N[C@H]5CC[C@H](Oc6ccc(C#N)c(Cl)c6)CC5)nn4)C3)CC2)C1 [Compound 259, 6-[(3R)-3-[4-[5-acetyl-3-[7-(difluoromethyl)-6-(1-methylpyrazol-4-yl)-3,4-dihydro-2H-quinolin-1-yl]-6,7-dihydro-4H-pyrazolo[4,3-c]pyridin-1-yl]-1-piperidyl]-1-piperidyl]-N-[4-(3-chloro-4-cyano-phenoxy)cyclohexyl]pyridazine-3-carboxamide] | –
< 1 | ≤ 0.1 | CC(=O)N1CCc2c(c(N3CCCc4cc(-c5cnn(C)c5)c(C(F)F)cc43)nn2[C@H]2CC[C@@H](CN3CCN(c4ccc(C(=O)N[C@H]5CC[C@H](Oc6ccc(C#N)c(Cl)c6)CC5)nn4)CC3)CC2)C1 [Compound 210, 6-[4-[[4-[5-acetyl-3-[7-(difluoromethyl)-6-(1-methylpyrazol-4-yl)-3,4-dihydro-2H-quinolin-1-yl]-6,7-dihydro-4H-pyrazolo[4,3-c]pyridin-1-yl]cyclohexyl]methyl]piperazin-1-yl]-N-[4-(3-chloro-4-cyano-phenoxy)cyclohexyl]pyridazine-3-carboxamide] | –
< 1 | ≤ 0.1 | CC(=O)N1CCc2c(c(-c3cccc4cc(-c5cnn(C)c5)ncc34)nn2C2CN(CC3CCN(c4ccc(C(=O)N[C@H]5CC[C@H](Oc6ccc(C#N)c(Cl)c6)CC5)nn4)CC3)C2)C1 [Compound 4, 6-[4-[[3-[5-acetyl-3-[3-(1-methylpyrazol-4-yl)-8-isoquinolyl]-6,7-dihydro-4H-pyrazolo[4,3-c]pyridin-1-yl]azetidin-1-yl]methyl]-1-piperidyl]-N-[4-(3-chloro-4-cyano-phenoxy)cyclohexyl]pyridazine-3-carboxamide] | –

The remaining lines, values behind:

SMILES | EC50 (AR / CBP ternary complex; [1]) [nM] | IC50 (VCaP cells) [nM] | EC50 (AR / CBP ternary complex; read-out: Average Ternary Complex, treated 1.5 hours, rabbit CBP or p300 antibody detection) [nM]
CC(=O)N1CCc2c(c(-c3cccc4cc(-c5ccc(CC6CCN(c7ccc(C(=O)N[C@H]8CC[C@H](Oc9ccc(C#N)c(Cl)c9)CC8)nn7)CC6)nc5)ncc34)nn2C)C1 [Compound 19, 6-[4-[[5-[8-(5-acetyl-1-methyl-6,7-dihydro-4H-pyrazolo[4,3-c]pyridin-3-yl)-3-isoquinolyl]-2-pyridyl]methyl]-1-piperidyl]-N-[4-(3-chloro-4-cyano-phenoxy)cyclohexyl]pyridazine-3-carboxamide] | > 100 | ≤ 0.1 | –
CC(=O)N1CCc2c(c(N3CCCc4cc(-c5cnn(C)c5)c(C(F)F)cc43)nn2C2CCN(C(=O)COC3CCN(c4ccc(C(=O)N[C@H]5CC[C@H](N(C)c6ccc(C#N)c(Cl)c6)CC5)cc4)CC3)CC2)C1 [Compound 12, 4-[4-[2-[4-[5-acetyl-3-[7-(difluoromethyl)-6-(1-methylpyrazol-4-yl)-3,4-dihydro-2H-quinolin-1-yl]-6,7-dihydro-4H-pyrazolo[4,3-c]pyridin-1-yl]-1-piperidyl]-2-oxo-ethoxy]-1-piperidyl]-N-[4-(3-chloro-4-cyano-N-methyl-anilino)cyclohexyl]benzamide] | – | ≤ 0.1 | < 1
Cn1c(=O)sc2ccc(N3CCCc4cc(-c5ccc(CCC6CCN(c7ccc(C(=O)N[C@H]8CC[C@H](Oc9ccc(C#N)c(Cl)c9)CC8)nn7)CC6)nc5)c(C(F)F)cc43)cc21 [Compound 56, N-[4-(3-chloro-4-cyano-phenoxy)cyclohexyl]-6-[4-[2-[5-[7-(difluoromethyl)-1-(3-methyl-2-oxo-1,3-benzothiazol-5-yl)-3,4-dihydro-2H-quinolin-6-yl]-2-pyridyl]ethyl]-1-piperidyl]pyridazine-3-carboxamide] | 1 to 10 | > 100 | –
CC(=O)N1CCc2c(c(N3CCCc4cc(-c5cnn(C)c5)c(C(F)F)cc43)nn2[C@H]2CC[C@@H](OC3CN(c4ccc(C(=O)N[C@H]5CC[C@H](Oc6ccc(C#N)c(Cl)c6)CC5)nn4)C3)CC2)C1 [Compound 223, 6-[3-[4-[5-acetyl-3-[7-(difluoromethyl)-6-(1-methylpyrazol-4-yl)-3,4-dihydro-2H-quinolin-1-yl]-6,7-dihydro-4H-pyrazolo[4,3-c]pyridin-1-yl]cyclohexoxy]azetidin-1-yl]-N-[4-(3-chloro-4-cyano-phenoxy)cyclohexyl]pyridazine-3-carboxamide] | < 1 | ≤ 0.1 | –
CC(=O)N1CCc2c(c(-c3cccc4cc(-c5cnn(CCC6CCN(c7ccc(C(=O)N[C@H]8CC[C@H](Oc9ccc(C#N)c(Cl)c9)CC8)nn7)CC6)c5)ncc34)nn2C2CCC2)C1 [Compound 83, 6-[4-[2-[4-[8-(5-acetyl-1-cyclobutyl-6,7-dihydro-4H-pyrazolo[4,3-c]pyridin-3-yl)-3-isoquinolyl]pyrazol-1-yl]ethyl]-1-piperidyl]-N-[4-(3-chloro-4-cyanophenoxy)cyclohexyl]pyridazine-3-carboxamide] | < 1 | 0.1 to 1 | –
CC(=O)N1CCc2c(c(N3CCCc4cc(-c5cnn(C)c5)c(C(F)F)cc43)nn2C2CCC3(CC2)CCN(c2ccc(C(=O)N[C@H]4CC[C@H](Oc5ccc(C#N)c(Cl)c5)CC4)nn2)CC3)C1 [Compound 112, 6-[9-[5-acetyl-3-[7-(difluorodimethyl)-6-(1-methylpyrazol-4-yl)-3,4-dihydro-2H-quinolin-1-yl]-6,7-dihydro-4H-pyrazolo[4,3-c]pyridin-1-yl]-3-azaspiro[5.5]undecan-3-yl]-N-[4-(3-chloro-4-cyano-phenoxy)cyclohexyl]pyridazine-3-carboxamide] | < 1 | 0.1 to 1 | –
CC(=O)N1CCc2c(c(N3CCCc4cc(C#N)ccc43)nn2[C@H]2C[C@H](CC3CCN(c4ccc(C(=O)N[C@H]5CC[C@H](Oc6ccc(C#N)c(Cl)c6)CC5)nn4)CC3)C2)C1 [Compound 77, 6-[4-[[3-[5-acetyl-3-(6-cyano-3,4-dihydro-2H-quinolin-1-yl)-6,7-dihydro-4H-pyrazolo[4,3-c]pyridin-1-yl]cyclobutyl]methyl]-1-piperidyl]-N-[4-(3-chloro-4-cyano-phenoxy)cyclohexyl]pyridazine-3-carboxamide] | 1 to 10 | 0.1 to 1 | –
CC(=O)N1CCc2c(c(-c3cccc4cc(-c5cnn(CCC6CCN(c7ccc(C(=O)N[C@H]8CC[C@H](Oc9ccc(C#N)c(Cl)c9)CC8)nn7)CC6)c5)ncc34)nn2C2CC2)C1 [Compound 82] | < 1 | 0.1 to 1 | –
CC(=O)N1CCc2c(c(N3CCCc4cc(-c5cnn(C)c5)c(C(F)F)cc43)nn2C2CCN(C[C@H]3CCN(c4ccc(C(=O)N[C@H]5CC[C@H](Oc6ccc(C#N)c(Cl)c6)CC5)nn4)C[C@H]3C)CC2)C1 [Compound 234] | < 1 | ≤ 0.1 | –
